The record followed here is patent US9771333B2, “Quinazoline derivatives as TAM family kinase inhibitors” (SIGNALCHEM LIFESCIENCES CORP., priority 2013, dated 2017).

A value given as a limit tells only on which side of the number the result lay.

Assay type in all cases: biochemical
Experiment [1] deals with T1, human Tyro3 (Homo sapiens, UniProt Q06418).
T1 construct: GST (N); made in house; host or cells: Sf9 insect cells (baculovirus)
T1 sequence (Q06418 455-890 limits assumed): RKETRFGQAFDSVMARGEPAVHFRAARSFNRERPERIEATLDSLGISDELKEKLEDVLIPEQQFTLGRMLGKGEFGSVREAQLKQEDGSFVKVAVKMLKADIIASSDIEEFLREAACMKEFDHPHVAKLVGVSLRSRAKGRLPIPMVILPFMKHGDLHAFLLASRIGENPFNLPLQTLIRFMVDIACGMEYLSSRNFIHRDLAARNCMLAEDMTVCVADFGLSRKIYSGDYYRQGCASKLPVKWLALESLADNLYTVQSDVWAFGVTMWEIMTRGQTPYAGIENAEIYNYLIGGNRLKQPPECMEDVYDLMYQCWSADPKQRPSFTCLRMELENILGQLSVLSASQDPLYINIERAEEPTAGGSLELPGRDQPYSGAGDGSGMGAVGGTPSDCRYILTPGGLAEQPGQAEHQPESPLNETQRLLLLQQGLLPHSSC
Briefly: Kinase enzymatic activity assay (33P-radiolabeled phosphate transfer), Tyro3. Conditions: recombinant human Tyro3 (455-end), poly(4:1 glu:tyr) substrate, 30 minutes. An excerpt: (§1) The identification of compounds of the invention as Tyro3, Axl or Mer inhibitors was readily accomplished using the recombinant human Tyro3, Axl and Mer proteins and employing the ^33P-radiolabeled phosphate transfer assay for which the procedure is known to someone skilled in the art or as described in Example 9.
(§2) Recombinant human Tyro3 (455-end, the gene accession number NM_006293), human Axl (473-end, the gene accession number NM_021913) and human Mer (578-872, the gene accession number NM_006343) were independently expressed by baculovirus in Sf9 insect cells using an N-terminal GST tag. The recombinant proteins were stored at −70° C. in a medium containing 50 mM Tris-HCl, pH 7.5, 150 mM NaCl, 10 mM glutathione, 0.1 mM EDTA, 0.25 mM DTT, 0.1 mM PMSF and 25% glycerol. The recombinant proteins were aliquoted into smaller quantities after centrifugation to avoid repeated handling and multiple freeze/thaw cycles for the most favorable performance.
(§3) Kinase Assay Buffer: This buffer solution consisted of the following components: 25 mM MOPS, pH 7.2, 12.5 mM β-glycerol-phosphate, 25 mM MgCl2, 5 mM EGTA, 2 mM EDTA and DTT 0.25 mM which was added prior to use.
(§4) Kinase Dilution Buffer: Kinase Assay Buffer was diluted at a 1:4 ratio (5× dilution) with distilled water.
(§5) [^33P]-ATP assay cocktail: In a designated radioactive working area, a 250 μM [^33P]-ATP assay cocktail was prepared by the addition of the following components: 150 μL of 10 mM ATP stock solution, 100 μL [^33P]-ATP (1 mci/100 μL), and 5.75 mL of kinase assay buffer. This solution was stored in 1 mL aliquots at −20° C.
(§6) ATP stock solution (10 mM): The ATP stock solution was prepared by dissolving 55 mg of ATP in 10 mL of kinase assay buffer. It was stored in 200 μL aliquots at −20° C.
(§7) Active Kinase Stock Solution: The active recombinant kinase protein (0.1 μg/μL) was diluted with Kinase Dilution Buffer and the activity was assayed using a serial dilution method. The specific activity is expressed in nmoL/min/mg.
(§8) Substrates: poly(4:1 glu:tyr) is the substrate used for each kinase Tyro3, Axl and Mer: The peptide substrate was dissolved in water to give the final concentration of 1 mg/mL.
(§9) Test compound solution: Test compound was dissolved in DMSO to obtain a 10 mM solution. The assay solution was prepared by adding 5 μL of this solution to […] of 10% DMSO/water to obtain the final concentration of 50 μM.
(§10) The enzymatic activity of all three kinases was determined as follows. Using a 96-well plate, the wells were divided into three categories: Blank wells, […] and Test wells. In Test wells, 5 μL of the test compound solution and 5 μL of the substrate solution were added. In Control wells, 5 μL of 10% DMSO/water and 5 μL of the substrate solution were added. In Blank wells, 10 μL of 10% DMSO/water was added. To each well was added 10 μL of Active Kinase Stock Solution to make up the volume in each well to 20 μL. All test samples, controls and blanks were run in duplicate. The reaction was initiated by the addition of 5 μL of [^33P]-ATP assay cocktail, bringing the final volume up to 25 μL in every well. The mixture was incubated at room temperature for 30 minutes. The reaction was terminated by transferring 10 μL of the reaction mixture into a Millipore MultiScreen filter plate (cat. number MSPHN6B50). The filter plate was washed in a 1% phosphoric acid solution with constant gentle shaking for 15 minutes and this step was repeated once. After the plate was dried in air, scintillation fluid was added to each well and the radioactivity in each well in CPM was counted by a Microbeta TriLux. The corrected CPM in each test well was determined by subtracting the average value of Blank well values. Percentage of inhibition of the kinase enzymatic activity by the test compound was determined using the following formula: […]
(§11) The IC50 values were determined in a similar way following a serial dilution of the test compound. […]

In experiment [2] the target is T2, human Axl (Homo sapiens, UniProt P30530).
T2 construct: GST (N); made in house; host or cells: Sf9 insect cells (baculovirus)
T2 sequence (P30530 473-894 limits assumed): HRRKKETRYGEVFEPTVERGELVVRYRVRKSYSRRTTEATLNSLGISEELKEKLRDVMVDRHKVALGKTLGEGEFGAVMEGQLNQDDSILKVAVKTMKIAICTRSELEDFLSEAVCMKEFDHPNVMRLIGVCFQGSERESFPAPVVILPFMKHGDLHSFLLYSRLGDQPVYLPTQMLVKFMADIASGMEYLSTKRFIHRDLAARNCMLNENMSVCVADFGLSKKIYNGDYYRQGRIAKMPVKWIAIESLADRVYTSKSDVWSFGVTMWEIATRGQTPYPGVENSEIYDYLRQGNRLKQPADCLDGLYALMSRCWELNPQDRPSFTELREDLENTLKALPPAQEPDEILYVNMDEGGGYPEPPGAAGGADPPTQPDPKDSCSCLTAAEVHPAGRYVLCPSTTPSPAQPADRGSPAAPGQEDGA
Nature of the experiment: Kinase enzymatic activity assay (33P-radiolabeled phosphate transfer), Axl. The following applies: recombinant human Axl (473-end), poly(4:1 glu:tyr) substrate, 30 minutes.
Excerpt: as §1, §2, §3, §4, §5, §6, §7, §8, §9, §10, §11

For experiment [3], the target named is T3, human Mer (Homo sapiens, UniProt Q12866).
T3 construct: GST (N); made in house; host or cells: Sf9 insect cells (baculovirus)
T3 sequence (Q12866 578-872): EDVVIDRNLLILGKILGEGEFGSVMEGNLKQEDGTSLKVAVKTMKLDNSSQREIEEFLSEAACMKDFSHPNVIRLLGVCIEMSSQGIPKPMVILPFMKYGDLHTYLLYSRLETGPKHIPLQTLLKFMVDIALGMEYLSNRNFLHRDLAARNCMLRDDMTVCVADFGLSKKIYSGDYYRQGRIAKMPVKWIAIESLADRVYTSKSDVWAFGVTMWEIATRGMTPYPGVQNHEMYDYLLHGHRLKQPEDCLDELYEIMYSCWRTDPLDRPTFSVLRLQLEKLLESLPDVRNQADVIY
Briefly: Kinase enzymatic activity assay (33P-radiolabeled phosphate transfer), Mer. Conditions: recombinant human Mer (578-872), poly(4:1 glu:tyr) substrate, 30 minutes.
Excerpt: as §1, §2, §3, §4, §5, §6, §7, §8, §9, §10, §11

Consider `COc1ncnc2cc(OCCOCCN(C)C)cc(OC3CCOCC3)c12` [Example 2.16, 2-(2-((4-methoxy-5-((tetrahydro-2H-pyran-4-yl)oxy)quinazolin-7-yl)oxy)ethoxy)-N,N-dimethylethanamine], for which the IC50 in experiment [1] was 1 to 10 µM; in experiment [2], less than 0.5 µM; in experiment [3], greater than 10 µM.
On the same counts, the results for `COc1cc(OCCCN2CCOCC2)cc2ncnc(Oc3ccc(F)cc3Cl)c12` [Example 2.17, 4-(3-((4-(2-chloro-4-fluorophenoxy)-5-methoxyquinazolin-7-yl)oxy)propyl)morpholine] are less than 0.5 µM, 1 to 10 µM and 1 to 10 µM.
On to `FC(F)(F)c1csc(Nc2ncnc3cc(OCCCN4CCOCC4)cc(OC4CCOCC4)c23)n1` [Example 2.18, N-(7-(3-morpholinopropoxy)-5-((tetrahydro-2H-pyran-4-yl)oxy)quinazolin-4-yl)-4-(trifluoromethyl)thiazol-2-amine], for which the IC50 in experiment [1] was greater than 10 µM; in experiment [2], 0.5 to 1 µM; in experiment [3], 1 to 10 µM.
Regarding `c1nc(Nc2nncs2)c2c(OC3CCOCC3)cc(OCCCN3CCOCC3)cc2n1` [Example 2.19, N-(7-(3-morpholinopropoxy)-5-((tetrahydro-2H-pyran-4-yl)oxy)quinazolin-4-yl)-1,3,4-thiadiazol-2-amine], the figures for the IC50 in experiment [1], in experiment [2] and in experiment [3] were 1 to 10 µM, less than 0.5 µM and 1 to 10 µM, respectively.
`Cc1nnc(Nc2ncnc3cc(OCCCN4CCOCC4)cc(OC4CCOCC4)c23)s1` [Example 2.20, 5-methyl-N-(7-(3-morpholinopropoxy)-5-((tetrahydro-2H-pyran-4-yl)oxy)quinazolin-4-yl)-1,3,4-thiadiazol-2-amine]: the IC50 in experiment [1] was greater than 10 µM; in experiment [2], 1 to 10 µM; in experiment [3] it was 1 to 10 µM.
For `c1csc(Nc2ncnc3cc(OCCCN4CCOCC4)cc(OC4CCOCC4)c23)n1` [Example 2.21, N-(7-(3-morpholinopropoxy)-5-((tetrahydro-2H-pyran-4-yl)oxy)quinazolin-4-yl)thiazol-2-amine], the IC50 in experiment [1] was 1 to 10 µM; in experiment [2], less than 0.5 µM; in experiment [3], less than 0.5 µM.
In the case of `FC(F)(F)c1nnc(Nc2ncnc3cc(OCCCN4CCOCC4)cc(OC4CCOCC4)c23)s1` [Example 2.22, N-(7-(3-morpholinopropoxy)-5-((tetrahydro-2H-pyran-4-yl)oxy)quinazolin-4-yl)-5-(trifluoromethyl)-1,3,4-thiadiazol-2-amine], the IC50 was greater than 10 µM in experiment [1], 1 to 10 µM in experiment [2] and greater than 10 µM in experiment [3].
On to `CN1CCC(COc2cc(OC3CCOCC3)c3c(Nc4nc(C(F)(F)F)cs4)ncnc3c2)CC1` [Example 2.23, N-(7-((1-methylpiperidin-4-yl)methoxy)-5-((tetrahydro-2H-pyran-4-yl)oxy)quinazolin-4-yl)-4-(trifluoromethyl)thiazol-2-amine], for which the IC50 in experiment [1] is greater than 10 µM; in experiment [2], less than 0.5 µM; in experiment [3], greater than 10 µM.
As for `COc1cc(N2CCOCC2)cc2ncnc(Nc3nc(C(F)(F)F)cs3)c12` [Example 2.24, N-(5-methoxy-7-morpholinoquinazolin-4-yl)-4-(trifluoromethyl)thiazol-2-amine], the IC50 is greater than 10 µM in experiment [1], 1 to 10 µM in experiment [2] and greater than 10 µM in experiment [3].
Turning to `COc1cc(N2CCN(C)CC2)cc2ncnc(Nc3nc(C(F)(F)F)cs3)c12` [Example 2.25, N-(5-methoxy-7-(4-methylpiperazin-1-yl)quinazolin-4-yl)-4-(trifluoromethyl)thiazol-2-amine], the values for the IC50 in experiment [1], in experiment [2] and in experiment [3] were greater than 10 µM, 0.5 to 1 µM and greater than 10 µM, respectively.
Turning to `COC(=O)c1cccc(Oc2ncnc3cc(OCCCN4CCOCC4)cc(OC)c23)c1` [Example 2.26, methyl 3-((5-methoxy-7-(3-morpholinopropoxy)quinazolin-4-yl)oxy)benzoate], the IC50 in experiment [1] is 1 to 10 µM; in experiment [2], greater than 10 µM; in experiment [3], greater than 10 µM.
Turning to `COC(=O)Cc1cccc(Oc2ncnc3cc(OCCCN4CCOCC4)cc(OC)c23)c1` [Example 2.27, methyl 2-(3-((5-methoxy-7-(3-morpholinopropoxy)quinazolin-4-yl)oxy)phenyl)acetate], the IC50 in experiment [1] is 1 to 10 µM; in experiment [2], greater than 10 µM; in experiment [3], 1 to 10 µM.
Turning to `COc1cc(OCCCN2CCOCC2)cc2ncnc(Oc3cccc(C(=O)NCc4ccccc4)c3)c12` [Example 2.28, N-benzyl-3-((5-methoxy-7-(3-morpholinopropoxy)quinazolin-4-yl)oxy)benzamide], the IC50 in experiment [1], in experiment [2] and in experiment [3] was greater than 10 µM throughout.
On to `COc1cc(OCCCN2CCOCC2)cc2ncnc(Oc3cccc(CC(=O)NCc4ccccc4)c3)c12` [Example 2.29, N-benzyl-2-(3-((5-methoxy-7-(3-morpholinopropoxy)quinazolin-4-yl)oxy)phenyl)acetamide], for which the half-inhibitory concentration (IC50) was 1 to 10 µM in experiment [1], greater than 10 µM in experiment [2] and greater than 10 µM in experiment [3].
Regarding `COC(=O)c1cccc(Oc2ncnc3cc(OCCN4CCN(C)CC4)cc(OC4CCOCC4)c23)c1` [Example 2.30, methyl 3-((7-(2-(4-methylpiperazin-1-yl)ethoxy)-5-((tetrahydro-2H-pyran-4-yl)oxy)quinazolin-4-yl)oxy)benzoate], the IC50 in experiment [1] was 1 to 10 µM; in experiment [2], 1 to 10 µM; in experiment [3], greater than 10 µM.

The IC50 is the point on the concentration scale where inhibition reaches its midpoint.
